Source: ChEMBL document CHEMBL5729144, “1-cyano-pyrrolidine derivatives as DUB inhibitors” (2022)

target: T1, Ubiquitin carboxyl-terminal hydrolase 30 (Homo sapiens, UniProt Q70CQ3); assay: A typical 8-point dilution series would be 100, 30, 10, 3, 1, 0.3, 0.1, 0.03 μM final. Reactions were performed in duplicate in black 384 well plates (small volume, Greiner 784076) in a final reaction volume of 21 μl. Either 1 μl of 50% DMSO or diluted compound was added to the plate. USP30 was diluted in reaction buffer (40 mM Tris, pH 7.5, 0.005% Tween 20, 0.5 mg/ml BSA, 5 mM beta-mercaptoethanol) to the equivalent of 0.05 μl/well and 10 μl of diluted USP30 was added to the compound. Enzyme and compound were incubated for 30 min at room temp. Reactions were initiated by the addition of 50 nM of TAMRA labelled peptide linked to ubiquitin via an iso-peptide bond as fluorescence polarisation substrate. Reactions were read immediately after addition of substrate and following a 2 h incubation at room temperature. Readings were performed on a Pherastar Plus (BMG Labtech). λ Excitation 540 nm; λ Emission 590 nm.
T1 sequence (Q70CQ3 whole entry): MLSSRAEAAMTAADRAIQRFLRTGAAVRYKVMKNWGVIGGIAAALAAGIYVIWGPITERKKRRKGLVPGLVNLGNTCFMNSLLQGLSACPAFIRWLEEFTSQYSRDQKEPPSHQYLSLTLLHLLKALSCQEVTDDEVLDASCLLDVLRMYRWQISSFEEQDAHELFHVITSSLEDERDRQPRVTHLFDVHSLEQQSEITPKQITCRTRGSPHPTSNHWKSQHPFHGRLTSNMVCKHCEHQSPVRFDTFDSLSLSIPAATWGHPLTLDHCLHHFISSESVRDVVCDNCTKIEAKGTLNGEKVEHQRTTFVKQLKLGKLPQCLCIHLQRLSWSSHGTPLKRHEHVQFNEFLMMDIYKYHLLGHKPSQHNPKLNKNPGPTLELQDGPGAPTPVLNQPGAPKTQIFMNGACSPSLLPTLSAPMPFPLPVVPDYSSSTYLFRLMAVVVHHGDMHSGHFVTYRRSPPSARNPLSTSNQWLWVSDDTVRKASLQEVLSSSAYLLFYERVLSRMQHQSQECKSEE

IC50, < 100 nM:
N#Cc1cccc(-c2cccc(-c3nc(C4CCCN4C#N)no3)c2)c1F (centres undefined), N#Cc1ccc(-c2cccc(-c3nc(C4CCCN4C#N)no3)c2)s1 (centres undefined), N#CN1CCCC1c1noc(-c2cccc(-c3cccc([N+](=O)[O-])c3)c2)n1 (centres undefined), N#Cc1cccc(-c2cc(-c3nc([C@@H]4CCCN4C#N)no3)ccn2)c1
